Test results: US20090118336A1, “PYRAZOLE DERIVATIVES AND THEIR USE AS PI3K INHIBITORS” (priority 2006, published 2009)

Experiments:
[1] = molecular target: mTOR PI kinase-related kinase (Homo sapiens, UniProt P42345); test: In vitro mTOR PI kinase-related kinase assay (AlphaScreen), Test (b); assay type: biochemical; settings: recombinant mTOR (1362-2549), ATP 20 μM, read-out: IC50 versus mTOR PI kinase-related kinase
Method: (b) In Vitro mTOR PI Kinase-Related Kinase Assay
The assay used AlphaScreen technology (Gray et al., Analytical Biochemistry, 2003, 313: 234-245) to determine the ability of test compounds to inhibit phosphorylation by recombinant mTOR. […]
Each reaction was stopped by the addition of 10 μl of a mixture of EDTA (50 mM), bovine serum albumin (BSA; 0.5 mg/ml) and Tris-HCl pH7.4 buffer (50 mM) containing p70 S6 Kinase (T389) 1A5 Monoclonal Antibody (Cell Signalling Technology, Catalogue No. 9206B) and AlphaScreen Streptavidin donor and Protein A acceptor beads (200 ng; Perkin Elmer, Catalogue No. 6760002B and 6760137R respectively) were added and the assay plates were left for about 20 hours at room temperature in the dark. The resultant signals arising from laser light excitation at 680 nm were read using a Packard Envision instrument.
Phosphorylated biotinylated peptide is formed in situ as a result of mTOR mediated phosphorylation. […] Upon laser light excitation at 680 nm, the donor bead: acceptor bead complex produces a signal that can be measured. […]
mTOR enzyme inhibition for a given test compound was expressed as an IC50 value.

p110α Type Ia human PI3K = molecular target: T1, p110α Type Ia human PI3K (Homo sapiens, UniProt P42336); test: In vitro PI3K enzyme assay (AlphaScreen), Test (a); assay type: biochemical; settings: recombinant enzyme, PI(4,5)P2 substrate, ATP 4 μM, read-out: IC50 versus p110α Type Ia human PI3K
T1 construct: full length DNA of each of the p110α, p110β and p110δ Type Ia human PI3K p110 isoforms; 6-His; made in house
Text: (a) In Vitro PI3K Enzyme Assay
The assay used AlphaScreen technology (Gray et al., Analytical Biochemistry, 2003, 313: 234-245) to determine the ability of test compounds to inhibit phosphorylation by recombinant Type I PI3K enzymes of the lipid PI(4,5)P2.
DNA fragments encoding human PI3K catalytic and regulatory subunits were isolated from cDNA libraries using standard molecular biology and PCR cloning techniques. The selected DNA fragments were used to generate baculovirus expression vectors. In particular, full length DNA of each of the p110α, p110β and p110δ Type Ia human PI3K p110 isoforms (EMBL Accession Nos. HSU79143, S67334, Y10055 for p110α, p110β and p110δ respectively) were sub-cloned into a pDEST10 vector (Invitrogen Limited, Fountain Drive, Paisley, UK). The vector is a Gateway-adapted version of Fastbac1 containing a 6-His epitope tag. […]
Biotinylated-DiC8-PI(3,4,5)P3 ([…]; Cell Signals Inc., Catalogue No. 107), recombinant purified GST-Grp1 PH protein (2.5 nM) and AlphaScreen Anti-GST donor and acceptor beads (100 ng; Packard Bioscience Limited, Station Road, Pangbourne, Berkshire, UK, Catalogue No. 6760603M) were added and the assay plates were left for about 5 to 20 hours at room temperature in the dark. The resultant signals arising from laser light excitation at 680 nm were read using a Packard AlphaQuest instrument. […]

T1 sequence (P42336 whole entry, canonical isoform): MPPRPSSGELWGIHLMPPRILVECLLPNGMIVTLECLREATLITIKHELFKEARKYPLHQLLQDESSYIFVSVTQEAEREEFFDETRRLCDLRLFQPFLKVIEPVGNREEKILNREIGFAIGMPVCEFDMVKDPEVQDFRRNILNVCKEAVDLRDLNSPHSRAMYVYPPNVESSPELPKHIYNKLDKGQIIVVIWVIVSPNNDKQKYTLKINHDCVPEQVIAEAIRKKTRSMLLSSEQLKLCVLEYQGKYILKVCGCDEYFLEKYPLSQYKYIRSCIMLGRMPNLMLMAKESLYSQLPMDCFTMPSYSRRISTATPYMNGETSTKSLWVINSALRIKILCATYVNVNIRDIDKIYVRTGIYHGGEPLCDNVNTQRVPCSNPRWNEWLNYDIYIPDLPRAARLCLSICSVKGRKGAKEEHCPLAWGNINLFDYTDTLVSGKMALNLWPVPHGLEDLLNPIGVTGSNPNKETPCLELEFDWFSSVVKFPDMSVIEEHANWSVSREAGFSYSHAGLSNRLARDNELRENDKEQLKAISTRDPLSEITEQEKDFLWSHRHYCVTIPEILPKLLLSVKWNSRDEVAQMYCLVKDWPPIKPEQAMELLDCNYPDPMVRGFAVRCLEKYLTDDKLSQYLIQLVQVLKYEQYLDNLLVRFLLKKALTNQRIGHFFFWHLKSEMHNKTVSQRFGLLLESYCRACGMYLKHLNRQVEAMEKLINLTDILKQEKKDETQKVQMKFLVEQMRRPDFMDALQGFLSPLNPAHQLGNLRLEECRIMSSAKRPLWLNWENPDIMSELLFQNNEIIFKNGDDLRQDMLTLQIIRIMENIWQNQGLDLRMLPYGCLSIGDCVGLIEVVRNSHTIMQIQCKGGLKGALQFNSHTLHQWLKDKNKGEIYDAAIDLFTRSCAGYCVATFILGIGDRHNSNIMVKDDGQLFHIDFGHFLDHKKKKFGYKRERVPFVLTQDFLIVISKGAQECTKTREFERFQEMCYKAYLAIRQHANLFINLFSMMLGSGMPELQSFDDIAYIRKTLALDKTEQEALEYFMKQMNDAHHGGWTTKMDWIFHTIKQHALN
T1 sequence (P27986 whole entry partner, canonical isoform): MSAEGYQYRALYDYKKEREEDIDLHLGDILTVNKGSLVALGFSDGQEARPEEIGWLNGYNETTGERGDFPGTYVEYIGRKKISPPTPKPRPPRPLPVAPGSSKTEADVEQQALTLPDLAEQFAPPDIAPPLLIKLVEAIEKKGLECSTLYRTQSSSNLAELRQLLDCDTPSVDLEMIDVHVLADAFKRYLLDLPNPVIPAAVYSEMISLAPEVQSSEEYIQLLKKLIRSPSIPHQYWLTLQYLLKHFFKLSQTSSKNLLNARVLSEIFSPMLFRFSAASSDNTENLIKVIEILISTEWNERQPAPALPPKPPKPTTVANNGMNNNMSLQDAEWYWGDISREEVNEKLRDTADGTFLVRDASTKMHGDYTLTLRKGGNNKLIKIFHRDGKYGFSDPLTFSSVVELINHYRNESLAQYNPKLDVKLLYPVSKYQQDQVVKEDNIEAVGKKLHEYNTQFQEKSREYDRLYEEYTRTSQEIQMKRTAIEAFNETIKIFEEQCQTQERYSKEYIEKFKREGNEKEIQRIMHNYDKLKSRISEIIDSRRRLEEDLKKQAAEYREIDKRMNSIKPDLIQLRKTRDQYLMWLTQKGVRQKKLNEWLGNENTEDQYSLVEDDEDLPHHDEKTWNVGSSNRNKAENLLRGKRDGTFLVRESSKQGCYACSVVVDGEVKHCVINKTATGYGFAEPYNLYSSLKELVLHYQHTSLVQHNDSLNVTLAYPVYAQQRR
mTOR PI kinase-related kinase, sequence (P42345 1362-2549): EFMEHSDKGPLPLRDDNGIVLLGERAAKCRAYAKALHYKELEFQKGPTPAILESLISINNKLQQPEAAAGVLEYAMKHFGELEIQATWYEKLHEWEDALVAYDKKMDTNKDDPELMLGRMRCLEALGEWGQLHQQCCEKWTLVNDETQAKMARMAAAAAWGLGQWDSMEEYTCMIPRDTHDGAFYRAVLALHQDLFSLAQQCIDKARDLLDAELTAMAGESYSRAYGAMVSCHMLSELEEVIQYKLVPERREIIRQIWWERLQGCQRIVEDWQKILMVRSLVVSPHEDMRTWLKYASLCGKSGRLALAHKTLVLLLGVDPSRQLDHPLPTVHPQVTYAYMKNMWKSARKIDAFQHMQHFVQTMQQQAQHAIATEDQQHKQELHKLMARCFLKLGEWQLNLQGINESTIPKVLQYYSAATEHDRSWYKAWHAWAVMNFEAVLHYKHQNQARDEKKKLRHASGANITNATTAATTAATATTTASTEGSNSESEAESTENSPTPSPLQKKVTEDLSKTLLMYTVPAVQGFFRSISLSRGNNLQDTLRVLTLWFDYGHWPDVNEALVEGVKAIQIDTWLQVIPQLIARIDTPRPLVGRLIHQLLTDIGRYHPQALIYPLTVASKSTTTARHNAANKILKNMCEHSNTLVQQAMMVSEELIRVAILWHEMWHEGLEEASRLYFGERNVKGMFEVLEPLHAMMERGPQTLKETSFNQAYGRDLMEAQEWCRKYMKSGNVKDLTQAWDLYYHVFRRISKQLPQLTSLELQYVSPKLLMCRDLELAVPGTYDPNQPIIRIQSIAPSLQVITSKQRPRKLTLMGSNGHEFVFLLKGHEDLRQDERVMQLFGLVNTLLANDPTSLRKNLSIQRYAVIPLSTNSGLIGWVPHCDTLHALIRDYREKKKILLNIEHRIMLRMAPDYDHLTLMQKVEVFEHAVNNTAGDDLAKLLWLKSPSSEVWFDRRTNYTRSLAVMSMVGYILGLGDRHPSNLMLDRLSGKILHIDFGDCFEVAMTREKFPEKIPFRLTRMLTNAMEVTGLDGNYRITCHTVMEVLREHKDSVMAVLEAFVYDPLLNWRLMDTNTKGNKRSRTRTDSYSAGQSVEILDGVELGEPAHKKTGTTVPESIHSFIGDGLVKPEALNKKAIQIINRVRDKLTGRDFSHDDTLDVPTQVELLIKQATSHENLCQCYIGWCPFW

Row | IC50 [1] [µM] | IC50 (p110α Type Ia human PI3K) [µM] | Structure (SMILES)
1 | ~40 | ~5 | CC(=O)Nc1cc(-c2cncc(NS(C)(=O)=O)c2)n(C)n1 [Example 1, N-[5-(5-methanesulphonamidopyridin-3-yl)-1-methyl-1H-pyrazol-3-yl]acetamide]
2 | ~2 | ~0.5 | CC(=O)Nc1cc(-c2cncc(NS(=O)(=O)c3c(C)nn(C)c3Cl)c2)n(C)n1 [Example 3, N-{5-[5-(5-chloro-1,3-dimethyl-1H-pyrazol-4-ylsulphonamido)pyridin-3-yl]-1-methyl-1H-pyrazol-3-yl}acetamide]
